Results as given in patent US9949945B2, “3′ equatorial-fluorine-substituted neuraminidase inhibitor compounds, compositions and methods for the use thereof as anti-virals” (THE UNIVERSITY OF BRITISH COLUMBIA, priority 2012, dated 2018).
Read-outs that look alike come from different tables or passages of the source.

Experiments:
[1] = biological target: Brisbane H1N1 (A/Brisbane/59/07) neuraminidase (Influenza A virus, UniProt D5F1R0)
[2] = biological target: California H1N1 (A/California/07/09) neuraminidase (Influenza A virus, UniProt C3W6G3)
[3] = biological target: B/Perth wt (B/Perth/211/01) NA (Influenza B virus, UniProt Q3S340); assay type: biochemical
[4] = system: A/Fukui H3N2; test: microbe, parasite or virus in culture; assay type: cell-based; details: read-out: IC50 in the plaque size reduction assay, A/Fukui H3N2
[5] = system: A/Mississippi H1N1 (A/Mississippi/3/01); test: microbe, parasite or virus in culture; assay type: cell-based; details: read-out: IC50 in the plaque size reduction assay, A/Mississippi H1N1
[6] = system: B/Perth (B/Perth/211/01); test: microbe, parasite or virus in culture; assay type: cell-based; details: read-out: IC50 in the plaque size reduction assay, B/Perth
[7] = biological target: Human Neu2 (Homo sapiens, UniProt Q9Y3R4); test: Time-dependent inactivation of human Neu2; assay type: biochemical; details: 1 mM inactivator, 27° C., pH 5.6
Human Neu2, sequence (Q9Y3R4 whole entry): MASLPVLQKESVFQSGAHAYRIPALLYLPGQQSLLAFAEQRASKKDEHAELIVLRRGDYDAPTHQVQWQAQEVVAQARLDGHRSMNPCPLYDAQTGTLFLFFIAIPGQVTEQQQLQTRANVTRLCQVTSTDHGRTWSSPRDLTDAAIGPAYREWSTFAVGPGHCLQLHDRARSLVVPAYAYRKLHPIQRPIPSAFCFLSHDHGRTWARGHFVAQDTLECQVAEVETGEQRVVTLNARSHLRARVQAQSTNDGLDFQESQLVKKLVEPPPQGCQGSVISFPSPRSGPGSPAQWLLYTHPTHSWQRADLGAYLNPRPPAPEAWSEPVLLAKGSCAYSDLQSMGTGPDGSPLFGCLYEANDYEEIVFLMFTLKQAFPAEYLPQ
Experimental: All experiments were carried out in a 100 mM Na2HPO4/50 mM Citric acid buffer, pH 5.6. […] The data were analyzed using the program GraFit 4.0 (Erithacus software) (R. Leatherbarrow, Erithacus Software Ltd., 4th Edition, Staines, UK, (1990)). […] Residual enzyme activity was determined at appropriate time intervals by the addition of an aliquot of the inactivation mixture to an assay buffer solution containing 8 mM 4-trifluoromethylumbelliferyl sialic acid (CF3MUSA). The initial linear increase in absorbance at 400 nm was used as a measure of the enzyme activity. These initial rates at each time point were plotted as a function of time to obtain time-dependent exponential decay curves from which ki obs could be obtained using the equation: (rate)t=(rate)t=0e^([…])+offset IC50 Enzyme Inhibition Assays

[8] = biological target: Hong Kong H3N2 (A/HongKong/01/68) neuraminidase (Influenza A virus, UniProt Q91MA2); test: biochemical
[9] = mouse, in vivo
[10] = in vivo; details: Balb/c, mouse, 1 mg/kg
[11] = biological target: B/Florida wt (B/Florida/4/2006) NA (Influenza B virus, UniProt J7JZT1); assay type: biochemical
[12] = biological target: A/Fukui H3N2 wt NA (Influenza A virus, UniProt A0A0F6NYK2); assay type: biochemical; details: read-out: IC50 in the enzyme inhibition assay, A/Fukui H3N2
[13] = biological target: sH1N1/01 wt (A/Mississippi/3/01 H1N1) NA (Influenza A virus, UniProt Q3M0T6); assay type: biochemical
[14] = biological target: Sol Isl sH1N1 wt (A/Solomon Islands/3/2006) NA (Influenza A virus, UniProt B4URD9); assay type: biochemical
[15] = read-out: IC50 in the enzyme inhibition assay, B/Perth

Row | Molecule | khyd [1] | t1/2 (inac) [1] | t1/2 (reac) [1] | Ki [2] [nM] | khyd [2] | t1/2 (inac) [2] | t1/2 (reac) [2] | IC50 [3, 15] [nM] | IC50 ([4]; Influenza A virus, H3N2, MDCK) [nM] | IC50 ([5]; Influenza A virus, H1N1, MDCK) [nM] | IC50 ([6]; Influenza B virus, MDCK) [nM] | Ki [8] [nM] | also measured
1 | CC(=O)NC1C(N)C(F)C(F)(C(=O)O)OC1[C@H](O)[C@H](O)CO (stereo in doubt) [FeqAmDFSA, 5-Acetamido-2,4,5-trideoxy-4-amino-2α, 3β-difluoro-α-D-erythro-L-gluco-nonulo-pyranosonate] | 0.0027 0.0059 0.0150 0.0140 0.0045 min^−1 | 0.9 0.2 0.4 0.8 — min | 256 117 46 49 153 min | 370 | 0.0027 0.0059 0.0150 0.0140 0.0045 min^−1 | 0.9 0.2 0.4 0.8 — min | 256 117 46 49 153 min | 5.4 | 1000 | 100 | 10 to 100 | – | –
2 | CC(=O)NC1C(NC(=N)N)C(F)C(F)(C(=O)O)OC1[C@H](O)[C@H](O)CO (stereo in doubt) [FeqGuDFSA, 5-Acetamido-2,4,5-trideoxy-2α, 3β-difluoro-4-guanidino-α-D-erythro-L-gluco-nonulopyranosonate] | 0.0005 0.0015 0.001 0.0019 0.0005 min^−1 | 0.3 0.5 0.9 0.5 0.8 min | 1380 460 690 363 1380 min | 100 | 0.0005 0.0015 0.001 0.0019 0.0005 min^−1 | 0.3 0.5 0.9 0.5 0.8 min | 1380 460 690 363 1380 min | 4.5 | 10 | 1 | 1 | 150 | inactivation of Neu2 [7]: occurred slowly; IC50 ([3]; read-out: IC50 B/Perth wt): 4.5 nM
3 | CC(=O)N[C@H]1C([C@H](O)[C@H](O)CO)O[C@@](F)(C(=O)O)C(F)[C@H]1O (stereo partly drawn) [DFSA, 5-Acetamido-5-deoxy-3-fluoro-D-erythro-β-L-manno-2-nonulopyranosonic acid fluoride] | – | – | – | – | – | – | – | 70 | 100000 | 1000 | 1000 | – | –
4 | CC(=O)N[C@@H]1C(N)C(F)[C@](F)(C(=O)O)OC1[C@H](O)[C@H](O)CO (some centres unmarked) [FaxAmDFSA] | 0.0001 0.0002 0.0001 0.0003 <0.0001 min^−1 | 2.1 2.5 1.7 4.0 20.8 min | 6900 3450 6900 2300 >6900 min | 4280 | 0.0001 0.0002 0.0001 0.0003 <0.0001 min^−1 | 2.1 2.5 1.7 4.0 20.8 min | 6900 3450 6900 2300 >6900 min | 210 | 1000 | 100 | 100 | 240 | –
5 | CC(=O)N[C@@H]1C(NC(=N)N)C(F)[C@](F)(C(=O)O)OC1[C@H](O)[C@H](O)CO (some centres unmarked) [FaxGuDFSA] | <0.0001 <0.0001 <0.0001 <0.0001 <0.000l min^−1 | 7.4 9.2 20.9 6.8 20.2 min | >6900 >6900 >6900 >6900 >6900 min | 350 | <0.0001 <0.0001 <0.0001 <0.0001 <0.000l min^−1 | 7.4 9.2 20.9 6.8 20.2 min | >6900 >6900 >6900 >6900 >6900 min | 54 | 100 | 10 | 10 to 100 | 70 | inactivation of Neu2 [7]: occurred slowly; plasma half-life after intranasal administration vs IV injection [9]: significantly longer; IC50 ([3]; read-out: IC50 B/Perth wt): 54 nM; bioavailability [10]: 92%
6 | Oseltamivir | – | – | – | – | – | – | – | – | – | – | – | – | IC50 [11]: 22.6 nM; IC50 [12]: 1.7 nM
7 | Zanamivir | – | – | – | – | – | – | – | – | – | – | – | – | IC50 ([13]; read-out: IC50 in the enzyme inhibition assay, A/Mississippi H1N1): 1.9 nM; IC50 ([13]; read-out: IC50 sH1N1/01 wt): 1.9 nM; IC50 [4]: 100 nM; IC50 [5]: ≤ 1 nM; IC50 [6]: 10 nM; IC50 [14]: 2.2 nM
